In PubChem BioAssay (NCI):
“And” between values parts separate entries of the source, which are not always exact repeats. Equal values may be shown once.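 Cells were grown in 96-well plates and exposed to each compound for 48 hours at five concentrations; endpoints were interpolated linearly between bracketing concentrations, or set to the highest concentration if not reached. Here, GI50 denotes the concentration required for 50% inhibition of growth. TGI denotes the concentration required for complete inhibition of growth.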

System: MDA-MB-468 breast
Experiment: NCI anticancer screen, dose series, 48 h

| SMILES | GI50 | TGI |
| --- | --- | --- |
| Cn1cc(-c2cc3ncnc(Nc4ccc(NC(=O)Nc5cc(C(C)(C)C)on5)cc4)c3s2)cn1 | 0.92 µM | 4.75 µM |
| Cc1cccc2c3c(sc12)C(c1ccc(Cl)cc1)C(C#N)=C(/N=C/c1ccc(Cl)cc1)O3 (stereo unspecified) | 0.257 µM | 2 µM |
| COc1cc(N2CCC(N(C)C)CC2)ccc1Nc1ncc(Cl)c(Nc2ccccc2P(C)(C)=O)n1 | 1.22 µM and 0.897 µM | 3.71 µM and 4.49 µM |
| Nc1nc(-n2cccn2)nc(-n2cccn2)c1Br | > 100 µM | > 100 µM |
| CCN(CC)c1ccc(/C=N/NC(=O)c2ccc(Nc3ccnc(C(F)(F)F)c3)cc2)c(O)c1 | 0.227 µM | 0.956 µM |
| C#Cc1cccc(NC(=O)Nc2ccc(NC(=O)CCl)cc2)c1 | 13.3 µM | 32.1 µM |
| COc1cc2c3c(n(CCCNC4CCCC4)c(=O)c2cc1OC)-c1cc2c(cc1C3=O)OCO2 | 5.6 µM | 19.6 µM |
| CCCCCCN1C(=O)/C(=c2\sc3n(c2=O)C2C(NN=3)N(CC)C(=O)N2CC)c2ccccc21 (stereo unspecified) | 1.41 µM | > 50 µM |
| C=C1C(=O)O[C@H]2[C@H]1CC/C(COC(=O)NCCc1ccc(OC)cc1)=C\CC[C@@]1(C)O[C@@H]21 | 1.55 µM | 3.85 µM |
| COc1nccc(-c2c(-c3ccc(F)cc3)ncn2C2CCC(O)CC2)n1 (stereo unspecified) | 21.6 µM | > 89.4 µM |
| Cc1ccc(NC(=O)c2ccnc(C(F)(F)F)c2)cc1-c1cc(OCCO)nc(N2CCOCC2)c1 | 1.82 µM | 7.09 µM |
| O=[N+]([O-])c1cccc(-c2nc3sccn3c2-c2ccnc(NCCCNS(=O)(=O)c3ccc(F)cc3)n2)c1 | 1.5 µM | 7.11 µM |
| CC(=O)OCC(=O)[C@@]1(O)[C@H](C)C[C@H]2[C@@H]3C=C(C)C4=Cc5c(cnn5-c5ccc(F)cc5)C[C@]4(C)[C@H]3[C@@H](O)C[C@@]21C | 2.01 µM | 3.92 µM |
| c1ccc(-c2nc(Nc3ccc(-c4nc5ccccc5[nH]4)cc3)nc(N3CCOCC3)n2)cc1 | 2.13 µM | 4.39 µM |
| FC(F)(F)c1ccc2c(c1)N(CCCN1CCN(C3CC3)CC1)c1ccccc1S2 | 3.84 µM | 15.1 µM |
| [N-]=[N+]=Nc1ncc(-c2ccc(C(F)(F)F)cc2)c(NC2CCCCCC2)n1 | > 10 µM | > 10 µM |
| CCCCCCn1c(-c2ccc(C(=O)O/N=C(\N)c3ccc(OC)cc3)cc2)nc(-c2ccccc2)c1-c1ccccc1 | 1.75 µM | 3.51 µM |
| OCCNc1nc(NCCO)nc(Nc2ccc(C3=NN(c4cc(Cl)cc(Cl)c4)C(c4ccc(Cl)cc4)C3)cc2)n1 (stereo unspecified) | 1.92 µM | 3.77 µM |
| CC(C)(C)Cn1c(N)nc2ccc(-c3[nH]c(C(C)(C)C)nc3-c3ccc(F)cc3)nc21 | 3.1 µM | 16.8 µM |
| CC1OC(O[C@@H]2C(O)C(CO)OC(O[C@H]3COC(O[C@H]4CC[C@]5(C)[C@H]6CC[C@]78OC[C@@]9(CC[C@](C)(C=O)C[C@H]97)[C@H](O)C[C@@]8(C)[C@]6(C)CC[C@H]5C4(C)C)[C@@H](OC4OC(CO)[C@@H](O)[C@@H](O)[C@@H]4O)[C@@H]3O)[C@H]2OC2OC[C@@H](O)[C@@H](O)[C@@H]2O)[C@@H](O)[C@@H](O)[C@H]1O (stereo partly specified) | 1.59 µM | 3.28 µM |
| COC(=O)c1c2c(c(C)[n+]([O-])c1C)C(=O)C=C(NCc1ccc(Cl)cc1)C2=O | 0.223 µM | 0.76 µM |
| N#C/C(=C\c1cn(-c2ccccc2)c2ccccc12)C(=O)O | 50.7 µM | > 100 µM |

| SMILES | GI50 | TGI |
| --- | --- | --- |
| O=C(CNC(=O)c1cccc2ccccc12)Nc1ccccc1Oc1cccc(O)c1 | 3.55 µM | 19.4 µM |
| COC(=O)Nc1ccc2ccc3c(NC(=O)OC)ccc4ccc1c2c43 (tested in a mixture with another compound) | 3.8 µM | 19.2 µM |
| O=C(Oc1ccccc1)c1cc(O)c(O)c(O)c1 | 12.6 µM | 67.5 µM |
| O=C(O)C(/C=C/c1ccco1)=N\Nc1nc(-c2ccc(Cl)cc2)cs1 | 10.6 µM | > 50 µM |
| N#Cc1nc(-c2cccc(Br)c2)cc(-c2ccc(Nc3nc(N4CCCCC4)nc(N4CCCCC4)n3)cc2)c1N | 2.16 µM | 5.64 µM |
| COc1ccc(/C=C/C(=O)c2ccc(Nc3ncnc4ccccc34)cc2)cc1OC | 2.17 µM | 7.29 µM |
| COc1ccc2c(c1)[nH]c(=O)c1c3cccnc3cn21 | 0.133 µM | 2.33 µM |
| COc1ccc(C2CC(=O)Nc3c2c(C)nn3-c2nc3ccccc3[nH]2)cc1 (stereo unspecified) | 2.86 µM | 12.6 µM |
| CN(C)c1cccc2[nH]c(-c3[nH]ncc3Nc3ccnc(N)n3)nc12 | 0.0145 µM | 0.0422 µM |
| Clc1cc(Cl)cc(N2N=C(c3cccc(Nc4ccncc4)c3)CC2c2ccccc2)c1 (stereo unspecified) | 1.52 µM | 3.01 µM |
| CNC(=O)c1cc(Oc2ccc3nc(NC(=O)Nc4ccc(Cl)c(Cl)c4)sc3c2)ccn1 | 1.97 µM | 5.09 µM |
| COc1cc(C)cc2c1OC(c1ccccc1)CC2=O (stereo unspecified) | > 100 µM | > 100 µM |
| Cn1cnc2c(F)c(Nc3ccc(Br)cc3Cl)c(C(=O)NOCCO)cc21 | > 10 µM and 11.9 µM | > 10 µM and 71.1 µM |
| O=c1cc/c(=N\Nc2ccccc2)c(=O)/c1=N/Nc1ccccc1 | > 50 µM | > 50 µM |
| Cc1sc2ncnc(Sc3nc4ccccc4[nH]3)c2c1C | 17.7 µM | 60.5 µM |
| Cc1cn(-c2cc(NC(=O)c3cncc(C#Cc4cnc5ccc(OCCCS(C)(=O)=O)nn45)c3)cc(C(F)(F)F)c2)cn1 | 2.2 µM | 7.33 µM |
| CCCCCCCCCCCCCCCCCCOc1ccccc1CC(=O)OCC[N+](C)(C)C | 1.37 µM | 3.05 µM |
| CCCCCC(=O)N1c2ccccc2NC2=C(C(=O)CC(c3ccc(OC)c(OC)c3)C2)C1c1ccc(C(F)(F)F)cc1 (stereo unspecified) | > 100 µM | > 100 µM |
| O=C(Nc1ccccc1Cl)c1cnc2ccc(C3CCNCC3)cn12 | 2.13 µM | 9.54 µM |
| CCN(CC)CCC(=O)Nc1cccc2c1C(=O)c1c(c(O)c3ccccc3c1O)C2=O | > 100 µM | > 100 µM |
| S=C(Nc1ccccc1)c1ccccn1 | 45.3 µM | > 100 µM |
